Test results reported in article PMC10571957, “αV-Integrin-Dependent Inhibition of Glioblastoma Cell Migration, Invasion and Vasculogenic Mimicry by the uPAcyclin Decapeptide” (Cancers, 2023).
“And” between values parts separate entries of the source, which are not always exact repeats. Equal entries are not always repeated.

Columns and labels:
U87-MG cells = assay: Boyden chamber migration (chemotaxis), U87-MG; type: cell-based, human; details: for % of the basal: sheet all data, Average all expts; for % of basal (T-TEST list) / % of basal, average / % of basal / cells n°/field: sheet data scrambled; for % of basal, average: Average 2 expts
Experimental: The migration and invasion assays were performed using Boyden chambers and 8 µm pore size PVP-free filters coated with 50 µg/mL of collagen type VI (Sigma), as previously described. For the invasion assays, collagen-coated filters were further coated with 50 µg/mL Matrigel^TM (Sigma). Briefly, 11 × 10^4 U87-MG, 4 × 10^4 U251-MG, or 4 × 10^4 U138-MG/sample were pre-treated for 40 min at 37 °C with the indicated effectors. Then, the cells were allowed to migrate for 3 h or to invade for 5 h at 37 °C toward 5% FBS in DMEM/0.1% BSA. At the end of both assays, the cells on the lower filter surface were fixed, stained with haematoxylin, and counted under an optical microscope (Zeiss Axiophot, Carl Zeiss, Milan, Italy) at 20× magnification. The migration and invasion experiments were conducted in triplicate for U87-MG and in duplicate for U251-MG and U138-MG. The migrated or invaded cells were reported as percentage of basal migration or invasion in the presence of DMEM/0.1% BSA, taken as 100%, and analyzed as reported in Section 2.11.
Figure 3 Inhibition of U87-MG, U251-MG, and U138-MG GBM cellular migration by uPAcyclin. Quantitative analysis of U87-MG (A), U251-MG (B), and U138-MG (C) directional migration. A total of 11 × 10^4 U87-MG/sample or 4 × 10^4 U251-MG or U138-MG/sample were pre-treated for 40 min at 37 °C with uPAcyclin or S-peptide at the indicated concentrations, anti-αV polyclonal (anti-αV Pclonal) or monoclonal (anti-αV MoAb) antibody, or anti-GAPDH, and anti-α2 monoclonal antibody (anti-α2 MoAb), and then assayed in Boyden chambers at 37 °C, either for basal (BSA) or directional 5% FBS-dependent migration for 3 h at 37 °C. At the end of incubation, the filters were processed as described in Methods. Basal migration was taken as 100% and all values were calculated relative to that (* p-value < 0.05; ** p-value < 0.005; *** p-value < 0.001).

[1] = system: U87-MG cells (αV integrin); assay: FITC-uPAcyclin receptor binding/competition, U87-MG; design: species or system human; details: for FITC-uPAcyclin binding, single values: T-test sheet, single replicates of all EXPTs
Experimental: The U87-MG, U251-MG, and U138-MG cell lines were harvested and acid-treated, as described. Then, 2 × 10^6 cells/sample were exposed for 30 min at 4 °C to uPAcyclin or S-uPAcyclin at the indicated concentrations, or with the following antibodies: VNR147 monoclonal anti-αV integrin (Chemicon Int. Inc., Temecula, CA, USA), polyclonal anti-αV (Millipore, Burlington, MA, USA), monoclonal anti-α2 (Chemicon Int. Inc., Temecula, CA, USA), polyclonal anti-actin (Sigma-Aldrich, St. Louis, MO, USA), monoclonal anti-GAPDH (Abcam, Cambridge, UK), and purified vitronectin (VN, Corning, Glendale, AZ, USA). The cells were subsequently incubated with 50 nM FITC-uPAcyclin for 2 h at 4 °C, as described. At the end of incubation, the cells were washed and the cell surface-associated fluorescence was determined using a fluorimeter (VICTOR^TM X3-PerkinElmer, Waltham, MA, USA). All binding assays were performed three times, with duplicate samples, and analyzed as described in Section 2.11.
Figure 2 αV expression of U87-MG, U251-MG, and U138-MG GBM cells and specific binding of FITC-uPAcyclin. (A) U87-MG, U251-MG, U138-MG, HEK-293, and HEK-293/αV total cell lysates were subjected to Western blotting and probed using polyclonal anti-αV or polyclonal anti-actin as loading control. (B) A total of 2 × 10^6 U87-MG, U251-MG, U138-MG, HEK-293/αV, or HEK-293 cells were pre-incubated for 30 min at 4 °C with 500 nM uPAcyclin and further exposed to 50 nM FITC-uPAcyclin for 2 h at 4 °C. At the end of the incubation, the unbound material was washed and cell-associated FITC-uPAcyclin was quantitated by a fluorimeter. The net value of cell-surface-associated fluorescence, corresponding to the specific binding, is shown. (C) A total of 2 × 10^6 U87-MG, U251-MG, and U138-MG cells were pre-incubated for 30 min at 4 °C with increasing concentrations of unlabeled uPAcyclin and then assayed for binding of FITC-uPAcyclin, for 2 h at 4 °C. Cell-surface-associated fluorescence, as percentage of the samples […], is shown. (D) U87-MG cells were pre-incubated with uPAcyclin (1 pM, 100 nM), scrambled uPAcyclin (S-uPAcyclin, 1 pM and 100 nM)), vitronectin (200 µM), anti-αv polyclonal (anti-αV Pclonal, 5 µg/mL) or monoclonal (anti-αV MoAb, 5 µg/mL) or anti-α2 monoclonal (anti-α2 MoAb, 1 µg/mL), polyclonal anti-actin, and monoclonal anti GAPDH. Then, cells were treated as in B (* p-value < 0.05; *** p-value < 0.001).

[2] = 10pM, Expt n°2, replicate 1 (as labelled)
[3] = 10pM, Expt n°2, replicate 2 (as labelled)
[4] = 1nM, Expt n°2, replicate 1 (as labelled)
[5] = 1nM, Expt n°2, replicate 2 (as labelled)

Ac-PS[EELKPEPK]-NH2 (sidechain bridge or staple) [S-uPAcyclin, scrambled control peptide]
% of the basal (U87-MG cells; 10pM): 169%
% of the basal (U87-MG cells; 1nM): 183%
% of the basal (U87-MG cells; 100nM): 160%
% of basal (T-TEST list) (U87-MG cells; 10 pM, T-TEST list value 1): 171
% of basal (T-TEST list) (U87-MG cells; 10 pM, T-TEST list value 2): 152
% of basal (T-TEST list) (U87-MG cells; 10 pM, T-TEST list value 3): 191
% of basal (T-TEST list) (U87-MG cells; 10 pM, T-TEST list value 4): 162
% of basal (T-TEST list) (U87-MG cells; 1 nM, T-TEST list value 1): 171
% of basal (T-TEST list) (U87-MG cells; 1 nM, T-TEST list value 2): 190
% of basal (T-TEST list) (U87-MG cells; 1 nM, T-TEST list value 3): 191
% of basal (T-TEST list) (U87-MG cells; 1 nM, T-TEST list value 4): 181
% of basal (T-TEST list) (U87-MG cells; 100nM, T-TEST list value 2): 158
% of basal (T-TEST list) (U87-MG cells; 100nM, T-TEST list value 3): 158
% of basal (T-TEST list) (U87-MG cells; 100nM, T-TEST list value 4): 162
effect on migration, in words (U87-MG cells; up to 100 nM, U87-MG (Figure 3A)): ineffective up to 100 nM
competition with FITC-uPAcyclin binding, in words ([1]; U87-MG, S-uPAcyclin 1 pM and 100 nM, vitronectin 200 µM, anti-αV 5 µg/mL, anti-α2 1 µg/mL): retains very little binding ability
FITC-uPAcyclin binding, single values ([1]; competitor 1 pM, listed as Scrambled uPAcyclin): 85 and 88 and 80 and 75
FITC-uPAcyclin binding, single values ([1]; competitor 100 nM, listed as Scrambled uPAcyclin): 74 and 80 and 82 and 75

Ac-K^1P[ESPPEELK^10]-NH2 (sidechain bridge or staple) [uPAcyclin]
inhibition of migration (U87-MG cells; 1 nM, U87-MG, 5% FBS, 3 h): 70–80%
migration, in words (U87-MG cells; 100 nM, U87-MG, 5% FBS, 3 h): below background levels
% of the basal (U87-MG cells; 10pM): 168%
% of the basal (U87-MG cells; 1nM): 119%
% of the basal (U87-MG cells; 100nM): 87%
% of basal, average (U87-MG cells; 10pM): 143.5%
% of basal (U87-MG cells; 10pM, Expt n°1, replicate 1): 133%
cells n°/field (U87-MG cells; 10pM, Expt n°1, replicate 1): 14 cells n°/field
% of basal (U87-MG cells; 10pM, Expt n°1, replicate 2): 143%
cells n°/field (U87-MG cells; 10pM, Expt n°1, replicate 2): 15 cells n°/field
% of basal (U87-MG cells; [2]): 152%
cells n°/field (U87-MG cells; [2]): 16 cells n°/field
% of basal (U87-MG cells; [3]): 133%
cells n°/field (U87-MG cells; [3]): 14 cells n°/field
% of basal (T-TEST list) (U87-MG cells; 10 pM, T-TEST list value 1): 143
% of basal (T-TEST list) (U87-MG cells; 10 pM, T-TEST list value 2): 152
% of basal (T-TEST list) (U87-MG cells; 10 pM, T-TEST list value 3): 133
% of basal (T-TEST list) (U87-MG cells; 10 pM, T-TEST list value 4): 143
% of basal, average (U87-MG cells; 1nM): 131%
% of basal (U87-MG cells; 1nM, Expt n°1, replicate 1): 124%
cells n°/field (U87-MG cells; 1nM, Expt n°1, replicate 1): 13 cells n°/field
% of basal (U87-MG cells; 1nM, Expt n°1, replicate 2): 124%
cells n°/field (U87-MG cells; 1nM, Expt n°1, replicate 2): 13 cells n°/field
% of basal (U87-MG cells; [4]): 143%
cells n°/field (U87-MG cells; [4]): 15 cells n°/field
% of basal (U87-MG cells; [5]): 171%
cells n°/field (U87-MG cells; [5]): 18 cells n°/field
% of basal (T-TEST list) (U87-MG cells; 1 nM, T-TEST list value 1): 133
% of basal (T-TEST list) (U87-MG cells; 1 nM, T-TEST list value 2): 143
% of basal (T-TEST list) (U87-MG cells; 1 nM, T-TEST list value 3): 124
% of basal (T-TEST list) (U87-MG cells; 1 nM, T-TEST list value 4): 124
FITC-uPAcyclin binding, single values ([1]; competitor 1 pM): 70 and 77 and 74 and 75
FITC-uPAcyclin binding, single values ([1]; competitor 100 nM): 38 and 42 and 49 and 44 and 54
Kdapp ([1]; unlabeled uPAcyclin vs FITC-uPAcyclin, U87-MG, 4 °C): low nanomolar range
